Source: ChEMBL document CHEMBL6074668 (J Med Chem, 2024)
The source made the active and inactive calls. No cut-off for these calls is given here.

How the values were obtained:
Assay type in all cases: functional, cell-based
Mu-type opioid receptor [1] = target: T1, Mu-type opioid receptor (Homo sapiens, UniProt P35372); assay: Agonist activity at human mu opioid receptor expressed in CHO-K1 cells assessed as inhibition of forskolin-stimulated cAMP accumulation at 10 uM by HitHunter assay based luminescence analysis
T1 sequence (P35372 whole entry): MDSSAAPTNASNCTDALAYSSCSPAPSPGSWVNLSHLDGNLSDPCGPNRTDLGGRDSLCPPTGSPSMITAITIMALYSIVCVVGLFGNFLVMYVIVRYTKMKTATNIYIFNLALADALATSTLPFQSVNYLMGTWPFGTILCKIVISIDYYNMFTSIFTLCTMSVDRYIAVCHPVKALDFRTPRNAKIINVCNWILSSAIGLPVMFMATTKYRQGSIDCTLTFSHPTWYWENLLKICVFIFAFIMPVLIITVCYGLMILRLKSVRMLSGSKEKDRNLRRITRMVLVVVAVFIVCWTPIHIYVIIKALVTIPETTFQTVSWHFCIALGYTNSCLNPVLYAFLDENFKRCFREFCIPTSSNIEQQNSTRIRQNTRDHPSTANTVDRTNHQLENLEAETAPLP

Mu-type opioid receptor [2] = target: T1, Mu-type opioid receptor; assay: Agonist activity at human mu opioid receptor expressed in CHO-K1 cells assessed as inhibition of forskolin-stimulated cAMP accumulation by HitHunter assay based luminescence analysis relative to control
[3] = target: T2, Kappa-type opioid receptor (Homo sapiens, UniProt P41145); assay: Agonist activity at human kappa opioid receptor expressed in CHO-K1 cells assessed as inhibition of forskolin-stimulated cAMP accumulation by HitHunter assay based luminescence analysis relative to control
T2 sequence (P41145 whole entry): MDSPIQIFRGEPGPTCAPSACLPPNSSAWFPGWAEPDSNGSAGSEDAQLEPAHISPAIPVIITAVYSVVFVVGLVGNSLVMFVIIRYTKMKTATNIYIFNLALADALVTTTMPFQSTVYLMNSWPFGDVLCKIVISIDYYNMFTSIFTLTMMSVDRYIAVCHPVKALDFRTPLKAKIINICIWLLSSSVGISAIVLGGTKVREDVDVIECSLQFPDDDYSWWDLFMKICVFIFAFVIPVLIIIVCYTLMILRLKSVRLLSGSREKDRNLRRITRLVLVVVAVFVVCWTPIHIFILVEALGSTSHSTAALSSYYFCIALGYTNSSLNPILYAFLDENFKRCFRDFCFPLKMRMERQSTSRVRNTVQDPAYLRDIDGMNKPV

[4] = target: T2, Kappa-type opioid receptor; assay: Agonist activity at human kappa opioid receptor expressed in CHO-K1 cells assessed as inhibition of forskolin-stimulated cAMP accumulation at 10 uM by HitHunter assay based luminescence analysis
[5] = target: T2, Kappa-type opioid receptor; assay: Agonist activity at human kappa opioid receptor expressed in CHO-K1 cells assessed as inhibition of forskolin-stimulated cAMP accumulation by HitHunter assay based luminescence analysis
[6] = target: Delta-type opioid receptor (Homo sapiens) (UniProt P41143); assay: Agonist activity at human delta opioid receptor expressed in CHO-K1 cells assessed as inhibition of forskolin-stimulated cAMP accumulation at <1 uM by HitHunter assay based luminescence analysis
Delta-type opioid receptor (Homo sapiens), sequence (P41143 whole entry): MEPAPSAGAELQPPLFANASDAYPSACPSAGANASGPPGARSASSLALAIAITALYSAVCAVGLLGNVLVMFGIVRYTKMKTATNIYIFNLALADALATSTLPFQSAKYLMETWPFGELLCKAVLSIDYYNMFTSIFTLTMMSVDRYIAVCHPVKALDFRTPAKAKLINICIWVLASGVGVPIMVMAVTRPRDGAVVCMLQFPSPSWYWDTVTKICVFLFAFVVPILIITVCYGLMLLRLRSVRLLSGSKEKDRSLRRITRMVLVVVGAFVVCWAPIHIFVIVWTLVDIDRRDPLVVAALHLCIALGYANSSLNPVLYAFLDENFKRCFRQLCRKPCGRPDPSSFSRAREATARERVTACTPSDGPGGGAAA

Row | Compound | Activity (Mu-type opioid receptor [1]) | Emax (Mu-type opioid receptor [2]) | Emax [3] | Activity [4] | EC50 [5] | Emax ([3]; filed as agonist) | Activity [6] | Emax (Mu-type opioid receptor [2]; filed as agonist)
1 | COC(=O)C1=C2Nc3ccccc3[C@@]23CCN2C[C@@](O)([C@@H](C)O)[C@@H]1C[C@H]23 | inactive | < 10% | < 10% | inactive | – | – | – | –
2 | C=CC[N+]12CC[C@]34C(=C(C(=O)OC)[C@@H](C[C@@H]31)/C(=C\C)C2)Nc1ccc(Br)cc14 (some centres not stated) | inactive | < 10% | – | – | 650 nM | 100% | – | –
3 | C/C=C1/CN2CC[C@]34c5cc(I)ccc5NC3C(C(=O)OC)[C@H]1C[C@H]24 (some centres not stated) | inactive | < 10% | – | – | 24 nM | 100% | inactive | –
4 | C/C=C1/C[N+]2(C)CC[C@]34C(=C(C(=O)OC)[C@H]1C[C@@H]32)Nc1ccc(Br)cc14 (some centres not stated) | inactive | < 10% | – | – | 940 nM | 102% | – | –
5 | C[C@@H](NC(=O)[C@@H](N)Cc1ccc(O)cc1)C(=O)NCC(=O)N(C)[C@@H](Cc1ccccc1)C(=O)NCCO | – | – | – | inactive | – | – | – | –
6 | COC(=O)C1=C2Nc3ccccc3[C@@]23CCN2C[C@@](O)(C(C)=O)[C@@H]1C[C@H]23 | inactive | < 10% | < 10% | inactive | – | – | – | –
7 | C/C=C1/CN2CC[C@]34C(=C(C(=O)OC)[C@H]1C[C@H]23)Nc1ccc(-c2ccccc2)cc14 | – | – | – | – | – | 101% | inactive | 106%
8 | C=CC[N+]12CC[C@]34C(=C(C(=O)OC)[C@@H](C[C@@H]31)/C(=C\C)C2)Nc1ccccc14 (some centres not stated) | inactive | < 10% | < 10% | inactive | – | – | – | –
9 | C/C=C1/C[N+]2(C)CC[C@]34C(=C(C(=O)OC)[C@H]1C[C@@H]32)Nc1ccccc14 (some centres not stated) | inactive | < 10% | < 10% | inactive | – | – | – | –
10 | CC[C@@H]1CN2CC[C@]34C(=C(C(=O)OC)[C@H]1C[C@H]23)Nc1ccccc14 | inactive | < 10% | – | – | 1600 nM | 99% | – | –
11 | C/C=C1/CN2CC[C@]34C(=C(C(=O)OC)[C@H]1C[C@H]23)Nc1ccc(-c2ccsc2)cc14 | – | – | – | – | – | 104% | inactive | 107%
12 | COC(=O)C1=C2Nc3ccc(Br)cc3[C@@]23CCN2C[C@@](O)([C@@H](C)O)[C@@H]1C[C@H]23 | inactive | < 10% | < 10% | inactive | – | – | – | –
13 | C/C=C1/C[N+]2(CC3CC3)CC[C@]34C(=C(C(=O)OC)[C@H]1C[C@@H]32)Nc1ccccc14 (some centres not stated) | inactive | < 10% | – | – | 4700 nM | 113% | – | –
14 | C/C=C1/C[N+]2(Cc3ccccc3)CC[C@]34C(=C(C(=O)OC)[C@H]1C[C@@H]32)Nc1ccccc14 (some centres not stated) | – | – | < 10% | inactive | – | – | – | 112%
15 | CC[C@@H]1CN2CC[C@]34c5ccccc5N[C@@H]3[C@H](C(=O)OC)[C@H]1C[C@H]24 | inactive | < 10% | < 10% | inactive | – | – | – | –
16 | C/C=C1/C[N+]2(CCC)CC[C@]34C(=C(C(=O)OC)[C@H]1C[C@@H]32)Nc1ccccc14 (some centres not stated) | inactive | < 10% | < 10% | inactive | – | – | – | –
17 | C/C=C1/CN2CC[C@]34c5ccccc5N[C@@H]3[C@H](C(=O)OC)[C@H]1C[C@H]24 | inactive | < 10% | < 10% | inactive | – | – | – | –
18 | C/C=C1/C[N+]2(CC3CC3)CC[C@]34C(=C(C(=O)OC)[C@H]1C[C@@H]32)Nc1ccc(Br)cc14 (some centres not stated) | inactive | < 10% | – | – | – | 94% | – | –
19 | C/C=C1/CN2CC[C@]34C(=C(C(=O)OC)[C@H]1C[C@H]23)Nc1ccc(C#N)cc14 | inactive | < 10% | – | – | 81 nM | 102% | inactive | –
20 | C/C=C1/CN2CC[C@]34c5cc(Br)ccc5NC3C(C(=O)OC)[C@H]1C[C@H]24 (some centres not stated) | – | – | – | – | – | 100% | – | –
